# In patent US20260125389A1, “MEMBRANE-ASSOCIATED TYROSINE AND THREONINE KINASE INHIBITOR AND USE THEREOF” (HAINAN SIMCERE ZAIMING PHARMACEUTICAL CO., LTD., priority 2022, published 2026):
# System: HCC1569 cells
# Experiment: Inhibition of tumor cell proliferation (CTG, HCC1569)
# Assay type: cell-based
# Details: Homo sapiens, 168 h, 7 days incubation, CTG readout, read-out: IC50 of compounds for inhibition of HCC1569 cell growth
# Protocol: Experimental principle: The compound was incubated with tumor cells for 7 days, and ATP in viable cells was quantified using the CTG kit from Promega to evaluate the effect of the compound on tumor cell proliferation.
# Experimental method: The cultured cells were resuspended after being rinsed with PBS (for adherent cells) and digested with 0.25% Trypsin-EDTA, followed by cell counting to determine cell density and viability. 3000 HCC1569 cells/well were diluted with RPMI Medium 1640 containing 10% FBS, added to a 96-well plate (90 μL/well), and cultured in an incubator at 37° C. with 5% CO2 for 24 h. The test compound was diluted to different concentrations in dimethyl sulfoxide (DMSO) and added to a 96-well plate. Thus, the final concentration of the compound in the reaction system started at 25 μM and was subjected to a 4-fold serial dilution, with the final DMSO concentration maintained at 0.25%. The compound and cells were further incubated at 37° C. with 5% CO2 for 7 days. 50 μL/well of CTG was then added to measure the inhibitory effect of the compound on tumor cell growth, and the inhibition rate and half-maximal inhibitory concentration (IC50) were calculated.
# The % compound inhibition was calculated and fitted using XLfit software to obtain the IC50 of the compound.
# Blank wells and DMSO wells were set up. The blank well contained 100 μL of RPMI Medium 1640 with 10% FBS, where the inhibition rate of the compound on tumor cell growth was considered 100%. The DMSO well contained 0.25% DMSO added to the cell well, where the inhibition rate of the compound on tumor cell growth was considered 0%.
row,IC50,Compound
1,86.1 nM,"Cc1nc2c3c(c(N)n(-c4c(C)ccc(O)c4C)c3n1)C(=O)NCc1c-2ccnc1OC(F)(F)F [Compound 41, 2-amino-1-(3-hydroxy-2,6-dimethylphenyl)-11-methyl-6-(trifluoromethoxy)-4,5-dihydro-1,4,7,10,12-pentaazabenzo[4,5]cyclooctatetraeno[1,2,3-cd]inden-3(1H)-one]"
2,81.9 nM,"Cc1nc2c3c(c(N)n(-c4c(C)ccc(O)c4C)c3n1)C(=O)NCc1c-2ccnc1OC(F)F [Compound 39, 2-amino-6-(difluoromethoxy)-1-(3-hydroxy-2,6-dimethylphenyl)-11-methyl-4,5-dihydro-1,4,7,10,12-pentaazabenzo[4,5]cyclooctatetraeno[1,2,3-cd]inden-3(1H)-one]"
3,63.8 nM,"Cc1nc2c3c(c(N)n(-c4c(C)ccc(O)c4C)c3n1)C(=O)NCc1c-2ccnc1C [Compound 36, 2-amino-1-(3-hydroxy-2,6-dimethylphenyl)-6,11-dimethyl-4,5-dihydro-1,4,7,10,12-pentaazabenzo[4,5]cyclooctatetraeno[1,2,3-cd]inden-3(1H)-one]"
4,24.6 nM,"Cc1nc2c3c(c(N)n(-c4c(C)ccc(O)c4C)c3n1)C(=O)Nc1ncccc1-2 [Compound 17, 5-amino-4-(3-hydroxy-2,6-dimethylphenyl)-2-methyl-4,7-dihydro-6H-1,3,4,7,8-pentaazadibenzo[cd,f]azulen-6-one]"
5,50 nM,"Cc1nc2c3c(c(N)n(-c4c(C)ccc(O)c4C)c3n1)C(=O)Nc1ccncc1-2 [Compound 19, 5-amino-4-(3-hydroxy-2,6-dimethylphenyl)-2-methyl-4,7-dihydro-6H-1,3,4,7,10-pentaazadibenzo[cd,f]azulen-6-one]"
6,92 nM,"Cc1nc2c3c(c(N)n(-c4c(C)ccc(O)c4C)c3n1)C(=O)Nc1scnc1-2 [Compound 38, 5-amino-4-(3-hydroxy-2,6-dimethylphenyl)-2-methyl-4,7-dihydro-6H-8-thia-1,3,4,7,10-pentaazabenzo[cd]cyclopenta[f]azulen-6-one]"
7,11 nM,"Cc1nc2c3c(c(N)n(-c4c(C)ccc(O)c4C)c3n1)C(=O)Nc1cnccc1-2 [Compound 18, 5-amino-4-(3-hydroxy-2,6-dimethylphenyl)-2-methyl-4,7-dihydro-6H-1,3,4,7,9-pentaazadibenzo[cd,f]azulen-6-one]"
8,194 nM,"Cc1nc2c3c(c(N)n(-c4c(C)ccc(O)c4C)c3n1)C(=O)NCc1c-2ccnc1C#N [Compound 45, 2-amino-1-(3-hydroxy-2,6-dimethylphenyl)-11-methyl-3-oxo-1,3,4,5-tetrahydro-1,4,7,10,12-pentaazabenzo[4,5]cyclooctatetraeno[1,2,3-cd]indene-6-carbonitrile]"
9,40.5 nM,"CCc1nccc2c1CNC(=O)c1c(N)n(-c3c(C)ccc(O)c3C)c3nc(C)nc-2c13 [Compound 35, 2-amino-6-ethyl-1-(3-hydroxy-2,6-dimethylphenyl)-11-methyl-4,5-dihydro-1,4,7,10,12-pentaazabenzo[4,5]cyclooctatetraeno[1,2,3-cd]inden-3(1H)-one]"
10,293 nM,"Cc1nc2c3c(c(N)n(-c4c(C)ccc(O)c4C)c3n1)C(=O)NCc1ccccc1-2 [Compound 3, 2-amino-1-(3-hydroxy-2,6-dimethylphenyl)-11-methyl-4,5-dihydro-1,4,10,12-tetraazabenzo[4,5]cyclooctatetraeno[1,2,3-cd]inden-3(1H)-one]"
11,9.2 nM,"Cc1nc2c3c(c(N)n(-c4c(C)ccc(O)c4C)c3n1)C(=O)Nc1c-2cnn1C [Compound 12, 5-amino-4-(3-hydroxy-2,6-dimethylphenyl)-2,8-dimethyl-7,8-dihydro-1,3,4,7,8,9-hexaazabenzo[cd]cyclopenta[f]azulen-6(4H)-one]"
12,308 nM,"COc1c(F)ccc2c1CNC(=O)c1c(N)n(-c3c(C)ccc(O)c3C)c3nc(C)nc-2c13 [Compound 30, 2-amino-7-fluoro-1-(3-hydroxy-2,6-dimethylphenyl)-6-methoxy-11-methyl-4,5-dihydro-1,4,10,12-tetraazabenzo[4,5]cyclooctatetraeno[1,2,3-cd]inden-3(1H)-one]"
13,25.5 nM,"Cc1nc2c3c(c(N)n(-c4c(C)ccc(O)c4C)c3n1)C(=O)Nc1cccnc1-2 [Compound 20, 5-amino-4-(3-hydroxy-2,6-dimethylphenyl)-2-methyl-4,7-dihydro-6H-1,3,4,7,11-pentaazadibenzo[cd,f]azulen-6-one]"
14,9.1 nM,"Cc1nc2c3c(c(N)n(-c4c(C)ccc(O)c4C)c3n1)C(=O)Nc1c-2c(C)nn1C [Compound 34, 2-amino-1-(3-hydroxy-2,6-dimethylphenyl)-5,7,9-trimethyl-4,5-dihydro-1,4,5,6,8,10-hexaazabenzo[cd]cyclopenta[f]azulen-3(1H)-one]"
15,210 nM,"Cc1ccc2c(n1)CNC(=O)c1c(N)n(-c3c(C)ccc(O)c3C)c3nc(C)nc-2c13 [Compound 9, 2-amino-1-(3-hydroxy-2,6-dimethylphenyl)-7,11-dimethyl-4,5-dihydro-1,4,6,10,12-pentaazabenzo[4,5]cyclooctatetraeno[1,2,3-cd]inden-3(1H)-one]"
16,59.2 nM,"COc1cccc2c1CNC(=O)c1c(N)n(-c3c(C)ccc(O)c3C)c3nc(C)nc-2c13 [Compound 11, 2-amino-1-(3-hydroxy-2,6-dimethylphenyl)-6-methoxy-11-methyl-4,5-dihydro-1,4,10,12-tetraazabenzo[4,5]cyclooctatetraeno[1,2,3-cd]inden-3(1H)-one]"
17,49 nM,"Cc1nc2c3c(c(N)n(-c4c(C)ccc(O)c4C)c3n1)C(=O)Nc1c-2cnn1C1CC1 [Compound 33, 5-amino-8-cyclopropyl-4-(3-hydroxy-2,6-dimethylphenyl)-2-methyl-7,8-dihydro-1,3,4,7,8,9-hexaazabenzo[cd]cyclopenta[f]azulen-6(4H)-one]"
18,264 nM,"Cc1nc2c3c(c(N)n(-c4c(C)ccc(O)c4C)c3n1)C(=O)Nc1c(F)cncc1-2 [Compound 16, 5-amino-8-fluoro-4-(3-hydroxy-2,6-dimethylphenyl)-2-methyl-4,7-dihydro-6H-1,3,4,7,10-pentaazadibenzo[cd,f]azulen-6-one]"
19,113 nM,"Cc1nc2c3c(c(N)n(-c4c(C)ccc(O)c4C)c3n1)C(=O)NCc1c-2ccnc1C1CC1 [Compound 46, 2-amino-6-cyclopropyl-1-(3-hydroxy-2,6-dimethylphenyl)-11-methyl-4,5-dihydro-1,4,7,10,12-pentaazabenzo[4,5]cyclooctatetraeno[1,2,3-cd]inden-3(1H)-one]"
20,297 nM,"Cc1nc2c3c(c(N)n(-c4c(C)ccc(O)c4C)c3n1)C(=O)NCc1nc(OC3CC3)ccc1-2 [Compound 31, 2-amino-7-cyclopropoxy-1-(3-hydroxy-2,6-dimethylphenyl)-11-methyl-4,5-dihydro-1,4,6,10,12-pentaazabenzo[4,5]cyclooctatetraeno[1,2,3-cd]inden-3(1H)-one]"
21,27.3 nM,"Cc1nc2c3c(c(N)n(-c4c(C)ccc(O)c4C)c3n1)C(=O)Nc1nn(C)cc1-2 [Compound 13, 2-amino-1-(3-hydroxy-2,6-dimethylphenyl)-6,9-dimethyl-4,6-dihydro-1,4,5,6,8,10-hexaazabenzo[cd]cyclopenta[f]azulen-3(1H)-one]"
22,46.3 nM,"Cc1nc2c3c(c(N)n(-c4c(C)ccc(O)c4C)c3n1)C(=O)Nc1c-2cnn1C(F)F [Compound 42, 5-amino-8-(difluoromethyl)-4-(3-hydroxy-2,6-dimethylphenyl)-2-methyl-7,8-dihydro-1,3,4,7,8,9-hexaazabenzo[cd]cyclopenta[f]azulen-6(4H)-one]"
